T1: PTHR1 on UMR-106 cells (UniProt P25961 27-591, limits assumed)
T1 sequence (looked up): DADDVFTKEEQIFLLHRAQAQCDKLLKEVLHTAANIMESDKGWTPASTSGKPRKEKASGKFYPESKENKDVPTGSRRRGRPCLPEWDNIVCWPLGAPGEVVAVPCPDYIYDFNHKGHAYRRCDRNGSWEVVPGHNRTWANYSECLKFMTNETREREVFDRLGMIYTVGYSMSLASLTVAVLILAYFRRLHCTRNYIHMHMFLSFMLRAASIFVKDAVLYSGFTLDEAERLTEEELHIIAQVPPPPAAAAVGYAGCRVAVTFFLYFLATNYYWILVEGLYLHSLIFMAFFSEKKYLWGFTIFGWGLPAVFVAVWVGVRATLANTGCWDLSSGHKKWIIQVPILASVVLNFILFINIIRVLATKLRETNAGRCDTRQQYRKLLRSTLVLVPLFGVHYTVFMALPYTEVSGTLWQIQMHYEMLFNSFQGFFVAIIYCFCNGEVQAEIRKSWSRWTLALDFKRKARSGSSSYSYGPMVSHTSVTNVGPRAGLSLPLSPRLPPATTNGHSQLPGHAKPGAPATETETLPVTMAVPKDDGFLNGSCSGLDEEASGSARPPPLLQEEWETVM


How the values were obtained:
[1] = cited from earlier work
PTHR1 on UMR-106 cells = target: T1, PTHR1 on UMR-106 cells; experiment: cell-based or functional assay

| Molecule | EC50, biological activity (pGL4.29 reporter, fluorescence intensity) (PTHR1 on UMR-106 cells) | also measured |
| --- | --- | --- |
| CC[C@H](C)[C@H](NC(=O)[C@H](CCC(=O)O)NC(=O)[C@H](CO)NC(=O)[C@@H](NC(=O)[C@@H](N)CO)C(C)C)C(=O)N[C@@H](CCC(N)=O)C(=O)N[C@@H](CC(C)C)C(=O)N[C@@H](CCSC)C(=O)N[C@@H](Cc1cnc[nH]1)C(=O)N[C@@H](CC(N)=O)C(=O)N[C@@H](CC(C)C)C(=O)NCC(=O)N[C@@H](CCCCN)C(=O)N[C@@H](Cc1cnc[nH]1)C(=O)N[C@@H](CC(C)C)C(=O)N[C@@H](CC(N)=O)C(=O)N[C@@H](CO)C(=O)N[C@@H](CCSC)C(=O)N[C@@H](CCC(=O)O)C(=O)N[C@@H](CCCN=C(N)N)C(=O)N[C@H](C(=O)N[C@@H](CCC(=O)O)C(=O)N[C@@H](Cc1c[nH]c2ccccc12)C(=O)N[C@@H](CC(C)C)C(=O)N[C@@H](CCCN=C(N)N)C(=O)N[C@@H](CCCCN)C(=O)N[C@@H](CCCCN)C(=O)N[C@@H](CC(C)C)C(=O)N[C@@H](CCC(N)=O)C(=O)N[C@@H](CC(=O)O)C(=O)N[C@H](C(=O)N[C@@H](Cc1cnc[nH]1)C(=O)N[C@@H](CC(N)=O)C(=O)N[C@@H](Cc1ccccc1)C(=O)O)C(C)C)C(C)C [TP(PTH(1-34)), teriparatide] | – | half-life ([1]; human, in vivo): 30 min |
| Transcon PTH(1-34): polyethylene glycol (PEG)-conjugated prodrug of PTH(1-34) by Ascendis Pharma A/S | – | time for which serum calcium is maintained at normal physiological levels ([1]; patients, after administration): ≤ 24 hours |
| triple-ECD-binding fusion protein T002G-K | 61.4 pM | – |
| human serum albumin nanobody NbHSA (VHH) VHH: QVQLVESGGGLVQTGGSLRLSCAASGSTLVGHSVGFFRQAPGKEREPVVCISSTETVMYYTNSVKGRFTISRDNAKNTVWLQMDRLAPEDTAVYYCAARPQLCSALDYRYNSWGPGTQVTVSS | 0 pM | – |
